Data on four molecules can be found in patent US20040002521A1, “Cyclopropanecarboxylic acid amide compound and pharmaceutical use thereof” (AJINOMOTO CO. INC, priority 2000, published 2004).

The structures appear in SMILES notation. Values after ≈ are worked out from the molar mass of the structure shown.

This test concerns NF-kappa B. Description: Evaluation of NF-kappa B inhibition (β-gal reporter driven by 6 NF-kappa B binding sequences in immortalized HUVEC, IL-1β induced). It counts as cell-based. The settings on record: Homo sapiens; HUVEC reporter cells; compound added 30 minutes before IL-1β; β-gal activity determined after 16 hours; read-out: NF-kappa B Inhibitory Activity: IC50. From the text:
Evaluation of NF-kappa B Inhibition
In this evaluation, there were used cells obtained by stably introducing β-galactosidase (β-gal) gene of Escherichia coli, which was driven by an SV40 minimum promoter produced by fusing 6 NF-kappa B binding sequences derived from the kappa light chain enhancer of immunoglobulin arranged in a tandem to human normal umbilical venous endothelial cells (HUVEC) immortalized with an SV40 large-sized T-antigen. These cells were subjected to the subculture in an RPMI culture medium supplemented with 10% FBS (fetal bovine serum) and the cells were inoculated in wells of a 96-well plate in a concentration of 1×10^4 cells/well on the day before the initiation of the experiments. Each candidate compound of the present invention was dissolved in DMSO in an adequate concentration and then added to each well of the 96-well plate in such a manner that the final concentration of DMSO was adjusted to a level of not more than 1%. After 30 minutes from the addition of the compound, a […] IL-1β was added to each well to a final concentration of 50 ng/ml to thus induce the NF-kappa B activity and the β-gal activity was determined after 16 hours therefrom. The β-gal activity was determined using a chemiluminescent substrate (Galacton-Light-Plus available from Boehringer Manheim Company), which was used according to the protocols annexed to the reagent, and Luminescencer (available from ATO Company).
Turning to `CC1(C)CC1C(=O)Nc1ccc(Nc2ccccc2)cc1` (stereo not shown) [Example 12, 2,2-Dimethyl-cyclopropanecarboxylic acid (4-phenylamino-phenyl)-amide], the IC50 is 2 µg/mL (≈ 7.13 µM).

Take `CC1(C)CC1C(=O)Nc1ccc(Oc2ccc(Cl)cc2)cc1` (stereo not shown) [Example 9, 2,2-Dimethyl-cyclopropanecarboxylic acid [4-(4-chlorophenoxy)-phenyl]-amide]: the IC50 was determined as 5 µg/mL (≈ 15.8 µM).

Take `Cc1ccc(NC(=O)C2CC2(C)C)cc1` (stereo not shown) [Example 2, 2,2-Dimethyl-cyclopropanecarboxylic acid p-tolylamide]: the IC50 was 3 µg/mL (≈ 14.8 µM).

Regarding `CC1(C)CC1C(=O)Nc1ccc(Cc2ccccc2)cc1` (stereo not shown) [Example 1, 2,2-Dimethyl-cyclopropanecarboxylic acid (4-benzylphenyl)-amide], the IC50 was 3 µg/mL (≈ 10.7 µM).
